{"source": "ChEMBL document CHEMBL1144470", "about": "“Occurrence of the alpha-glucosidase inhibitor 1,4-Dideoxy-1,4-imino-D-arabinitol and related iminopentitols in marine sponges” (J Nat Prod, 2007)", "test": "Inhibition of yeast alpha-glucosidase", "design": "species or system Saccharomyces cerevisiae"}
{"molecule": "OC[C@H]1NC[C@@H](O)[C@@H]1O", "values": [{"measurement": "IC50", "result": 0.16, "unit": "µg/mL"}]}
